Data from patent US12728168B2, “Anti-CEA antibody-exatecan analog conjugate and pharmaceutical use thereof” (JIANGSU HENGRUI MEDICINE CO., LTD., priority 2019, dated 2026).

T1: human CEACAM1 expressed on CHO cell surface (CEACAM1-CHO) (Homo sapiens, UniProt P13688)
T1 construct: expressed in transfected cells; host or cells: CHO cells
T1 sequence (P13688 35-526): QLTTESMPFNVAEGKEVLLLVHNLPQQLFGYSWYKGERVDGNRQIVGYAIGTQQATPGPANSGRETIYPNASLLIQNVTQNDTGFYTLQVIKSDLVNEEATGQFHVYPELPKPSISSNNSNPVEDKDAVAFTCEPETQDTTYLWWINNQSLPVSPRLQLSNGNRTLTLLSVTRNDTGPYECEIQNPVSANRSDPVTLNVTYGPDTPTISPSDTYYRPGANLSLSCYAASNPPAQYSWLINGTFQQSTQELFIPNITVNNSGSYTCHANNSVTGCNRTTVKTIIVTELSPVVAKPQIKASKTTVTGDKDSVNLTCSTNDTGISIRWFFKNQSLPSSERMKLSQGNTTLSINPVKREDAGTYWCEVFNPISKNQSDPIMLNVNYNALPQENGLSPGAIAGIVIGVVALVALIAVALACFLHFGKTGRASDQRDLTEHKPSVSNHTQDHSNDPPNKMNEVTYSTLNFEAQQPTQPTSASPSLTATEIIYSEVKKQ


Key:
[1] = tested on: SK-BR-3 tumor cells (human breast cancer cells); assay: Inhibition of in vitro proliferation of SK-BR-3 cells (CTG); format: cell-based; conditions: 6 days of culture
Method: (§1) This experiment was intended to test the inhibitory activity of the pharmaceutical compounds of the present disclosure against the in vitro proliferation of U87MG cells (Cell Bank, Chinese Academy of Sciences, Cat #TCHu138) and SK-BR-3 tumor cells (human breast cancer cells, ATCC, Cat #HTB-30). The cells were treated in vitro with a compound at different concentrations. After 6 days of culture, the proliferation of cells was tested using CTG (CellTiter-Glo® Luminescent Cell Viability Assay, Promega, Cat #G7573) reagents, and the in vitro activity of the compound was evaluated according to IC50 value.
(§2) The test for the inhibition of the in vitro proliferation of U87MG cells was taken as an example to illustrate the method of the present invention for testing the inhibitory activity of the compounds of the present invention against the in vitro proliferation of tumor cells. […]
(§3) Different test samples at 100 nM or 5 μM (100 μL) were added to the first column of a 96-well plate, and 100 μL of PBS was added to each well of the second column through the eleventh column. […] Plate reading: the 96-well cell culture plate was taken out and tested in a microplate reader (BMG labtech, PHERAstar FS) for chemiluminescence. […]
(§4) Data were processed and analyzed using Microsoft Excel and Graphpad Prism 5.

U87MG cells = assay: Inhibition of in vitro proliferation of U87MG cells (CTG); format: cell-based; conditions: Homo sapiens, U-87 MG, 6 days of culture, read-out: IC50 (nM) U87
Method: as §1, §2, §3, §4

[2] = target: T1, human CEACAM1 expressed on CHO cell surface (CEACAM1-CHO); assay: FACS binding assay, CEACAM1-CHO cells
Method: In order to detect the binding of the antibody to the CEA protein on the cell surface, the binding activity of the antibody was determined by FACS using cells expressing CEA on the cell surface. Cells were harvested and centrifuged at 400 g at 4° C. for 5 min. Pre-cooled PBS containing FBS at final concentration 10% was added, and the mixture was centrifuged at 400 g at 4° C. for 5 min; the procedures were repeated twice. The cells were seeded into a 96-well plate at 10^5 cells/well, and 100 μL of gradient diluted antibody solution was added to each well. The plate was incubated at 4° C. for 60 min and centrifuged, and the supernatant was removed. 250 μL of pre-cooled PBS containing FBS at final concentration 10% was added to each well to resuspend the cells, and the suspension was centrifuged at 400 g at 4° C. for 5 min, followed by the removal of the supernatant; the procedures were repeated twice. 50 μL of 1:200 diluted secondary antibody Alexa Fluor@488 goat anti-human IgG (H+L) (Lifetechologies, Cat #A11013) was added. The plate was incubated in the dark at 4° C. for 45 min and centrifuged, and the supernatant was removed. 250 μL of pre-cooled PBS containing FBS at final concentration 10% was added to each cell to resuspend the cells, and the suspension was centrifuged at 400 g at 4° C. for 5 min; the procedures were repeated twice. 100 μL of pre-cooled PBS was added to each well to resuspend the cells. The plate was analyzed by a flow cytometer (BD, FACSverse) for fluorescence signal values. Higher values indicate higher binding activity of the antibody to the protein on the cell surface. Binding curves were plotted using PRISM analysis software based on the assay results, and the EC50 values for the binding activity of the antibody to the cell surface proteins human CEA (MKN45 human gastric cancer cells, Nanjing Kebai Biotechnology Co., Ltd., Cat #CBP60488), cynoCEA-CHO and CEACAM1-CHO were obtained by fitting.

Row | EC50 (nM) CEACAM1-CHO ([2]; Table 1, murine antibodies) | Molecule | IC50 [1] | IC50 (U87MG cells) | other results
1 | No binding | mAb63: murine anti-CEA monoclonal antibody, VH SEQ ID NO: 9, VL SEQ ID NO: 10 (antibody, V domains shown) VH: EVQLQQSGPELVKPGASVKMSCKASGYTFTDFYMNWVRQSHGKSLEWIGDIFPKNGNTDYNRKFKDKATLTVDKSSNTVYMEFRSLTLEDSAIYFCARSGYGNYVFDYWGQGTIFTVSS VL: DVQMTQTPSALSASLGDRVTISCRTSQDINIYLNWYQQKPDGTVKLLIYYRSGLLSGVPSRFSGSGSGTDYSLTISNLEPEDIATYFCQQGNTLPPTFGGGTKLEIK | – | – | –
2 | No binding | mAb67: murine anti-CEA monoclonal antibody, VH SEQ ID NO: 11, VL SEQ ID NO: 12 (antibody, V domains shown) VH: EVQLQQSGPELVKPGASVKIYCKASGYTFTDYHMNWVKQSHGKSLEWIGDINPDIGGTSYNQNFKGKATLTVDKSSSTAYMELRSLTSEDSAVYYCSRWDFDSFANWGQGTLVTVSA VL: DIVMTQSPASLAMSLGKRATISCRASESVSIIGTNLIHWYQQKPGQPPKLLIYHASNLETGVPARFSGSGSGADFTLTIDPVEGDDVALYYCLQSRKIPYTFGGGTKMEIK | – | – | –

The remaining lines, values behind:

Row | Molecule | EC50 (nM) CEACAM1-CHO ([2]; Table 1, murine antibodies) | IC50 [1] | IC50 (U87MG cells) | other results
3 | CC[C@@]1(O)C(=O)OCc2c1cc1n(c2=O)Cc2c-1nc1cc(F)c(C)c3c1c2[C@@H](NC(=O)[C@H](O)C1CC1)CC3 [1-B, (R)-2-cyclopropyl-N-((1S,9S)-9-ethyl-5-fluoro-9-hydroxy-4-methyl-10,13-dioxo-2,3,9,10,13,15-hexahydro-1H,12H-benzo[de]pyrano[3′,4′:6,7]indolizino[1,2-b]quinolin-1-yl)-2-hydroxyacetamide] | – | 0.33 nM | 0.86 nM | –
4 | CC[C@@]1(O)C(=O)OCc2c1cc1n(c2=O)Cc2c-1nc1cc(F)c(C)c3c1c2[C@@H](NC(=O)[C@@H](O)C1CC1)CC3 [1-A, (S)-2-cyclopropyl-N-((1S,9S)-9-ethyl-5-fluoro-9-hydroxy-4-methyl-10,13-dioxo-2,3,9,10,13,15-hexahydro-1H,12H-benzo[de]pyrano[3′,4′:6,7]indolizino[1,2-b]quinolin-1-yl)-2-hydroxyacetamide] | – | 8.11 nM | 2.31 nM | –
5 | Sanofi: the antibody in SAR-408701 (Sanofi), heavy chain SEQ ID NO: 88, light chain SEQ ID NO: 89; positive control [reference compound] | – | – | – | EC50 (nM) CEACAM1-CHO ([2]; Table 17, humanized antibodies and controls): No binding
6 | mAb103: murine anti-CEA monoclonal antibody, VH SEQ ID NO: 13, VL SEQ ID NO: 14 (antibody, V domains shown) VH: QIQLVQSGPELKKPGETVKISCKASGYTFTTYGVIWVKQAPGKGLKWMGWINTYSGVPTYADDFKGRFAFSLETSASTAFLQINNLKNEDTATYFCARKKTLTTVTPWFAYWGQGTLVTVSA VL: DLVVTQSSSASFSLGASAKLTCTLSSQHSTYTIEWYQQQPLKPPKYVMELKKDGSHSTGDGIPDRFSGSSSGADRYLTISNIQPEDEAIYICGVGNTIKEQFVYVFGGGTKVTVL | No binding | – | – | –
